From patent publication US11058688B2, “Imidazopiperazine inhibitors of transcription activating proteins” (Board of Regents, The University of Texas System, priority 2018, dated 2021)

Legend:
[1] = target: GST-CBP(1081-1197) bromodomain (Homo sapiens (Human), UniProt Q92793); experiment: CBP AlphaScreen Assay; details: binding to biotin-H4(1-21) Ac-K5/8/12/16 peptide
Outline: (§1)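 IC50 values derived by variable-slope dose-response fit between negative and DMSO control signals. AlphaScreen signal reports bromodomain association with an H4(1-21) peptide acetylated at K5, K8, K12 and K16.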

BRD4(49-170) bromodomain = BRD4(49-170) bromodomain (Homo sapiens (Human), UniProt O60885); experiment: BRD4 AlphaScreen Assay; details: binding to biotin-H4(1-21) Ac-K5/8/12/16 peptide
Outline: as §1

Sequence of GST-CBP(1081-1197) bromodomain (Q92793 1081-1197): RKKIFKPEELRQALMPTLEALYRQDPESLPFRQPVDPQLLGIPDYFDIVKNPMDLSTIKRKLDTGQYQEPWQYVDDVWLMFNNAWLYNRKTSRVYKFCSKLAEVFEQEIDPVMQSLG

SMILES	IC50 [1]	IC50 (BRD4(49-170) bromodomain)
CC(=O)N1CCn2c(C3CCOC3)nc(-c3cc4c(-c5cnn(C)c5)nn(C)c4cc3F)c2C1 (stereo not shown) [Example 103, 1-(1-(6-fluoro-1-methyl-3-(1-methyl-1H-pyrazol-4-yl)-1H-indazol-5-yl)-3-(tetrahydrofuran-3-yl)-5,6-dihydroimidazo[1,5-a]pyrazin-7(8H)-yl)ethan-1-one]	147 nM	> 25000 nM
CC(=O)N1CCn2c(C3CCOCC3)nc(-c3ccc4c(c3)c(-c3cnn(C)c3)nn4C)c2C1 [Example 104, 1-(1-(1-methyl-3-(1-methyl-1H-pyrazol-4-yl)-1H-indazol-5-yl)-3-(tetrahydro-2H-pyran-4-yl)-5,6-dihydroimidazo[1,5-a]pyrazin-7(8H)-yl)ethan-1-one]	107 nM	3730 nM
CC(=O)N1CCn2c(C3CC3)nc(-c3ccc4c(c3)c(-c3cn(C)nc3C)nn4C)c2C1 [Example 106, 1-(3-cyclopropyl-1-(3-(1,3-dimethyl-1H-pyrazol-4-yl)-1methyl-1H-indazol-5-yl)-5,6-dihydroimidazo[1,5-a]pyrazin-7(8H)-yl)ethan-1-one]	286 nM	> 25000 nM
CC(=O)N1CCn2c(C3CC3)nc(N3CCCc4cc(-c5cncc(S(C)(=O)=O)c5)ccc43)c2C1 [Example 107, 1-(3-cyclopropyl-1-(6-(5-(methylsulfonyl)pyridin-3-yl)-3,4-dihydroquinolin-1(2H)-yl)-5,6-dihydroimidazo[1,5-a]pyrazin-7(8H)-yl)ethan-1-one]	510 nM	> 25000 nM
CC(=O)N1CCn2c(C3CC3)nc(N3CCCc4cc(-c5cnn(C6CC6)c5)ccc43)c2C1 [Example 108, 1-(3-cyclopropyl-1-(6-(1-cyclopropyl-1H-pyrazol-4-yl)-3,4-dihydroquinolin-1(2H)-yl)-5,6-dihydroimidazo[1,5-a]pyrazin-7(8H)-yl)ethan-1-one]	148 nM	14300 nM
CC(=O)N1CCn2c(C3CC3)nc(N3CCCc4cc(-c5cnn(C6CCOCC6)c5)ccc43)c2C1 [Example 109, 1-(3-cyclopropyl-1-(6-(1-(tetrahydro-2H-pyran-4-yl)-1H-pyrazol-4-yl)-3,4-dihydroquinolin-1(2H)-yl)-5,6-dihydroimidazo[1,5-a]pyrazin-7(8H)-yl)ethan-1-one]	349 nM	13800 nM
CC(=O)N1CCn2c(C3CC3)nc(N3CCCc4cc(-c5cnn(C(F)F)c5)ccc43)c2C1 [Example 110, 1-(3-cyclopropyl-1-(6-(1-(difluoromethyl)-1H-pyrazol-4-yl)-3,4-dihydroquinolin-1(2H)-yl)-5,6-dihydroimidazo[1,5-a]pyrazin-7(8H)-yl)ethan-1-one]	185 nM	11200 nM
CC(=O)N1CCn2c(C3CC3)nc(N3CCCc4cc(-c5c(C)noc5C)ccc43)c2C1 [Example 111, 1-(3-cyclopropyl-1-(6-(3,5-dimethylisoxazol-4-yl)-3,4-dihydroquinolin-1(2H)-yl)-5,6-dihydroimidazo[1,5-a]pyrazin-7(8H)-yl)ethan-1-one]	1450 nM	10300 nM
CC(=O)N1CCn2c(C3CC3)nc(N3CCCc4cc(-c5ccnc(N6CCOCC6)c5)ccc43)c2C1 [Example 112, 1-(3-cyclopropyl-1-(6-(2-morpholinopyridin-4-yl)-3,4-dihydroquinolin-1(2H)-yl)-5,6-dihydroimidazo[1,5-a]pyrazin-7(8H)-yl)ethan-1-one]	270 nM	21000 nM
CC(=O)N1CCn2c(C3CC3)nc(N3CCCc4cc(-c5ccc(=O)n(C)c5)ccc43)c2C1 [Example 113, 5-(1-(7-acetyl-3-cyclopropyl-5,6,7,8-tetrahydroimidazo[1,5-a]pyrazin-1-yl)-1,2,3,4-tetrahydroquinolin-6-yl)-1-methylpyridin-2(1H)-one]	193 nM	3460 nM
CC(=O)N1CCn2c(C3CC3)nc(N3CCCc4cc(-c5ccncc5)ccc43)c2C1 [Example 114, 1-(3-cyclopropyl-1-(6-(pyridin-4-yl)-3,4-dihydroquinolin-1(2H)-yl)-5,6-dihydroimidazo[1,5-a]pyrazin-7(8H)-yl)ethan-1-one]	615 nM	> 25000 nM
CC(=O)N1CCn2c(C3CC3)nc(N3CCCc4cc(-c5cnn(CC6CC6)c5)ccc43)c2C1 [Example 115, 1-(3-cyclopropyl-1-(6-(1-(cyclopropylmethyl)-1H-pyrazol-4-yl)-3,4-dihydroquinolin-1(2H)-yl)-5,6-dihydroimidazo[1,5-a]pyrazin-7(8H)-yl)ethan-1-one]	679 nM	> 25000 nM
CC(=O)N1CCn2c(C3CC3)nc(N3CCCc4cc(-c5cnn(Cc6ccccn6)c5)ccc43)c2C1 [Example 116, 1-(3-cyclopropyl-1-(6-(1-(pyridin-2-ylmethyl)-1H-pyrazol-4-yl)-3,4-dihydroquinolin-1(2H)-yl)-5,6-dihydroimidazo[1,5-a]pyrazin-7(8H)-yl)ethan-1-one]	1280 nM	> 25000 nM

Compounds with a lower IC50 [1], results first:

IC50 [1]	IC50 (BRD4(49-170) bromodomain)	SMILES
48 nM	22400 nM	CNC(=O)N1CCn2c(C3CC(F)(F)C3)nc(-c3c(F)ccc4cc(C5CCOCC5)ncc34)c2C1 [Example 91, 3-(3,3-difluorocyclobutyl)-1-(7-fluoro-3-(tetrahydro-2H-pyran-4-yl)isoquinolin-8-yl)-N-methyl-5,6-dihydroimidazo[1,5-a]pyrazine-7(8H)-carboxamide]
25 nM	9580 nM	CNC(=O)N1CCn2c(C3CC3)nc(-c3cccc4nc(-c5cn(C)nc5C)c(C#N)cc34)c2C1 [Example 98, 1-(3-cyano-2-(1,3-dimethyl-1H-pyrazol-4-yl)quinolin-5-yl)-3-cyclopropyl-N-methyl-5,6-dihydroimidazo[1,5-a]pyrazine-7(8H)-carboxamide]
19 nM	24700 nM	CNC(=O)N1CCn2c(C3CC3)nc(-c3cccc4nc(-c5cn(C)nc5C)c(C(F)(F)F)cc34)c2C1 [Example 101, 3-cyclopropyl-1-(2-(1,3-dimethyl-1H-pyrazol-4-yl)-3-(trifluoromethyl)quinolin-5-yl)-N-methyl-5,6-dihydroimidazo[1,5-a]pyrazine-7(8H)-carboxamide]
19 nM	> 25000 nM	CNC(=O)N1CCn2c(C3CC3)nc(-c3cccc4nc(N5CC6(COC6)C5)c(C#N)cc34)c2C1 [Example 102, 1-(3-cyano-2-(2-oxa-6-azaspiro[3.3]heptan-6-yl)quinolin-5-yl)-3-cyclopropyl-N-methyl-5,6-dihydroimidazo[1,5-a]pyrazine-7(8H)-carboxamide]
15 nM	7530 nM	CNC(=O)N1CCn2c(C3CC3)nc(-c3ccc4c(c3)c(-c3cnn(C)c3)nn4C)c2C1 [Example 105, 3-cyclopropyl-N-methyl-1-(1-methyl-3-(1-methyl-1H-pyrazol-4-yl)-1H-indazol-5-yl)-5,6-dihydroimidazo[1,5-a]pyrazine-7(8H)-carboxamide]
12 nM	> 25000 nM	CNC(=O)N1CCn2c(C3CCOCC3)nc(-c3c(F)ccc4cc(-c5ccn(C)n5)ncc34)c2C1 [Example 94, 1-(7-fluoro-3-(1-methyl-1H-pyrazol-3-yl)isoquinolin-8-yl)-N-methyl-3-(tetrahydro-2H-pyran-4-yl)-5,6-dihydroimidazo[1,5-a]pyrazine-7(8H)-carboxamide]
11 nM	8710 nM	CNC(=O)c1ccc(-c2nc3cccc(-c4nc(C5CC5)n5c4CN(C(=O)NC)CC5)c3cc2C#N)cn1 [Example 99, 1-(3-cyano-2-(6-(methylcarbamoyl)pyridin-3-yl)quinolin-5-yl)-3-cyclopropyl-N-methyl-5,6-dihydroimidazo[1,5-a]pyrazine-7(8H)-carboxamide]
10 nM	> 25000 nM	CNC(=O)N1CCn2c(C3CC(F)(F)C3)nc(-c3c(F)ccc4cc(-c5cnc(C)s5)ncc34)c2C1 [Example 92, 3-(3,3-difluorocyclobutyl)-1-(7-fluoro-3-(2-methylthiazol-5-yl)isoquinolin-8-yl)-N-methyl-5,6-dihydroimidazo[1,5-a]pyrazine-7(8H)-carboxamide]
4 nM	7950 nM	CNC(=O)N1CCn2c(C3CC3)nc(-c3cccc4nc(-c5cnc(C)s5)c(C#N)cc34)c2C1 [Example 100, 1-(3-cyano-2-(2-methylthiazol-5-yl)quinolin-5-yl)-3-cyclopropyl-N-methyl-5,6-dihydroimidazo[1,5-a]pyrazine-7(8H)-carboxamide]
2 nM	> 25000 nM	CNC(=O)N1CCn2c(C3CCC(F)(F)CC3)nc(-c3c(F)ccc4cc(-c5cnc(C)s5)ncc34)c2C1 [Example 93, 3-(4,4-difluorocyclohexyl)-1-(7-fluoro-3-(2-methylthiazol-5-yl)isoquinolin-8-yl)-N-methyl-5,6-dihydroimidazo[1,5-a]pyrazine-7(8H)-carboxamide]
2 nM	5540 nM	CNC(=O)N1CCn2c(C3CC(F)(F)C3)nc(-c3cccc4cc(-c5cnc(C)s5)ncc34)c2C1 [Example 96, 3-(3,3-difluorocyclobutyl)-N-methyl-1-(3-(2-methylthiazol-5-yl)isoquinolin-8-yl)-5,6-dihydroimidazo[1,5-a]pyrazine-7(8H)-carboxamide]
1 nM	3480 nM	CNC(=O)N1CCn2c(C3CCOCC3)nc(-c3cccc4cc(-c5cnc(C)s5)ncc34)c2C1 [Example 95, N-methyl-1-(3-(2-methylthiazol-5-yl)isoquinolin-8-yl)-3-(tetrahydro-2H-pyran-4-yl)-5,6-dihydroimidazo[1,5-a]pyrazine-7(8H)-carboxamide]
1 nM	3320 nM	CNC(=O)N1CCn2c(C3CCC(F)(F)CC3)nc(-c3cccc4cc(-c5cnc(C)s5)ncc34)c2C1 [Example 97, 3-(4,4-difluorocyclohexyl)-N-methyl-1-(3-(2-methylthiazol-5-yl)isoquinolin-8-yl)-5,6-dihydroimidazo[1,5-a]pyrazine-7(8H)-carboxamide]
